Data: ChEMBL document CHEMBL1133859, “Unprecedented sugar-dependent in vivo antitumor activity of carbohydrate-pendant cis-diamminedichloroplatinum(II) complexes” (Bioorg Med Chem Lett, 2001)

Test: Lethal dose in mice
Format: toxicity
Conditions: mouse, in vivo

CISPLATIN
LD50: 10 mg/kg
